From US20220323427A1, “SOMATOSTATIN RECEPTOR TYPE 5 AGONIST FOR THE TREATMENT OF HYPERINSULINISM” (Crinetics Pharmaceuticals, Inc., priority 2021, published 2022)

How the values were obtained:
[1] = SAD study pharmacokinetics; assay type: in vivo, human
Text: This Phase 1, first-in-human, double-blind, randomized, placebo-controlled study will evaluate the safety of Compound 1 in healthy volunteers as well as the relationship between exposure and key pharmacodynamic (PD) parameters. The study will initiate with a single ascending dose (SAD) phase followed by a multiple ascending dose (MAD) phase. Food effect will also be evaluated in subset of subjects in the SAD phase. Results will be used to inform endpoints and other parameters in later studies in patients with congenital HI.
SAD 1a/Part 1a: ascending single dose, randomized, placebo-controlled, double-blind; up to 10 cohorts, n=8/cohort; subjects in SAD 1a will undergo an IVGTT. Doses will escalate from 0.5 mg to 120 mg.
SAD 1c/Part 1c: single dose, 1-arm crossover food effect investigation; 1 cohort, n=6; SAD 1c will not be placebo-controlled or blinded. The dose is 120 mg.
In SAD 1c, subjects will participate in a 1-arm crossover investigation to evaluate the effect of a high-fat meal on Compound 1 absorption.

[2] = tested on: sulfonylurea-induced hyperinsulinism; assay: Sulfonylurea (glibenclamide) challenge and euglycemic clamp, MAD; assay type: in vivo, human
Procedure: MAD/Part 2: multiple ascending dose, randomized, placebo-controlled, double-blind; up to 5 cohorts, n=9/cohort; subjects in MAD will receive Compound 1 or the placebo. Subjects will undergo a mixed meal tolerance test (MMTT) and an SU challenge and euglycemic clamp procedure. The doses will not exceed the doses in the SAD. Doses will escalate from 30 mg to 120 mg.
In SAD 1b and the MAD, subjects will undergo an SU challenge in the setting of a euglycemic clamp procedure. Sulfonylurea drugs act to close KATP channel of the pancreatic β-cell, stimulating endogenous insulin secretion. Given that the majority (50%) of patients with congenital HI harbor a mutation in the KATP channel, the SU challenge models this genetic form of HI in healthy volunteers. Intravenous glucose will be used during the euglycemic clamp to maintain glucose within a target range. In the presence of an SU, the amount of intravenous (IV) glucose required to maintain a target glucose will increase, similar to patients with congenital HI who require supplemental glucose. The SU challenge cohorts in SAD 1b will assess the ability of a single dose of Compound 1 to reduce or prevent SU-induced glucose lowering as measured by reduced IV glucose infusion (reduced glucose “support”). IV glucose requirements will be assessed as a glucose infusion rate, or GIR (mg dextrose/kg body weight/minute). In the MAD, the durability of the Compound 1 effect will be measured by assessing the GIR required to maintain euglycemia during the SU challenge after 10 days of Compound 1 dosing compared to the baseline SU challenge in the absence (predose) of Compound 1.
Glibenclamide will be used for SU-induced hypoglycemia. Based on the available dose-response data in healthy volunteers, 5 mg of glibenclamide will be orally administered to healthy volunteers in selected single- and multi-dose cohorts. The risk of hypoglycemia due to overdose is negligible because continuous glucose monitoring by a clamp device will be performed for each subject and IV infusion of glucose will be provided to maintain each subject's baseline glucose levels.
The euglycemic glucose clamp will be performed by means of a glucose clamp device (ClampArt®; Profil Institut für Stoffwechselforschung, Neuss, Germany). The subject will be connected to the clamp device that will monitor the subject's PG continuously. The device will calculate aggregated PG values every minute. Based on these values, GIR will be calculated every minute using the algorithm implemented into the device and glucose will be administered automatically by the device to keep the PG concentration of the subject constant at a pre-determined target level. Approximately 2 mL of blood per hour will be sampled for glucose monitoring by ClampArt®/the clamp device. […]

[3] = tested on: human pancreatic islets; assay: Insulin secretion in perifused human islets; assay type: cell-based; settings: for Effect on glucose- and tolbutamide-stimulated insulin secretion: G16.7 and G16.7+Tolb
Procedure: The activity of Compound 1 on insulin and glucagon secretion in human pancreatic islets from three healthy adult donors (Prodo Labs, Aliso Viejo, Calif.) was evaluated using a perifusion system that enables dynamic insulin and glucagon measurements from the same islet preparation in response to different stimuli. Specifically, the effects on glucose-stimulated and sulfonylurea (tolbutamide)-stimulated insulin secretion and arginine-stimulated glucagon secretion were investigated and compared to those of a maximally effective concentration of diazoxide. Islets were collected in culture media (Prodo Labs #PIM-S001GMP) supplemented with 5% human AB serum (Prodo Labs #PIM-ABS001GMP), 1% glutamine-glutathione (Prodo Labs #PIM-G001GMP) and an antibiotic cocktail of amphotericin B, ciproflaxin and gentamicin (Prodo Labs #PIM-3X001GMP) and plated at a density of 1500-3000 islet equivalents (IEQ) in 10-cm nontreated tissue culture dishes (Thomas Scientific #1182M59). Islets were cultured at 37° C., 5% CO2 and 95% humidity for 20 h. Dynamic insulin secretion assays were performed using a perifusion system, Peri5 (Biorep Technologies, FL. Glucose (Boston BioProducts #BM-675) at 3 mM (G3) or 16.7 mM (G16.7), or glucose at 16.7 mM plus 100 μM tolbutamide (Sigma #T0891; G16.7+Tolb) were prepared in perifusion buffer, PB=[24 mM NaHCO3 (Fisher Scientific #S233-500), 120 mM NaCl (Spectrum Chemical #S0155), 4.8 mM KCl (Fisher Scientific #P217-500), 2.5 mM CaCl2 (Fisher Scientific #C614-500), 1.2 mM MgCl2 (Sigma #M8266), 10 mM HEPES (Gibco #15630-080) and 0.1% BSA (EMD Millipore #12675-100GM)]. Various concentrations of Compound 1 and diazoxide (Sigma #D9035) were prepared in G16.7 or in G16.7+Tolb. […] Insulin concentration was quantified using the commercially-available Mercodia Insulin ELISA (Mercodia #10-1113-10) kit. […] The optical density of each well was determined at 450 nm in a Tecan M1000Pro (Tecan, Switzerland) multiplate reader. Insulin concentrations were calculated by regression to the standard curve using GraphPad Prism (GraphPad, San Diego, Calif.).

[4] = after 10 days of 30, 60 or 120 mg QD

Food effect on exposure ([1]; 120 mg within 30 minutes of a high fat breakfast): significant reduction in exposure | Tmax ([1]; human, in vivo, single oral dose, at efficacious doses): 1 to 2 h | half-life ([1]; human, in vivo, single oral dose, healthy volunteers): ~40 h
SMILES: C[C@H](NC(=O)c1cnc(C#N)c(-c2cc(F)cc(F)c2)c1N1CC[C@H](N)C1)C(F)(F)F [Compound 1, 4-[(3S)-3-aminopyrrolidin-1-yl]-6-cyano-5-(3,5-difluorophenyl)-N-[(2S)-1,1,1-trifluoropropan-2-yl]pyridine-3-carboxamide]
Oral bioavailability and dose proportionality ([1]; single oral doses 0.5 to 120 mg): oral bioavailability with dose-proportional exposure | Plasma glucose during sulfonylurea challenge ([2]; 120 mg cohort, Day 10): mild elevation of plasma glucose | Effect on sulfonylurea-induced hyperinsulinism [2, 4]: reversed sulfonylurea-induced hyperinsulinism | Need for IV glucose support (glucose infusion rate) [2, 4]: eliminating the need for IV glucose support | Insulin and C-peptide levels during sulfonylurea challenge ([2]; day 10, all cohorts): suppressed | Effect on glucose- and tolbutamide-stimulated insulin secretion ([3]; 0.1 μM): intermediate effect | Effect on glucose- and tolbutamide-stimulated insulin secretion ([3]; 1 μM, both phases): strongest inhibitory effect | Insulin secretion in response to 16.7 mM glucose and tolbutamide ([3]; concentration dependent, islets from three healthy adult donors): inhibited insulin secretion
